# Earlier results as cited in patent US20230405017A1, “METHODS OF USING RHO KINASE INHIBITORS TO TREAT FRONTOTEMPORAL DEMENTIA” (Woolsey Pharmaceuticals, Inc., priority 2020, published 2023).
# Conditions: in vivo; 1-hydroxy (M3) metabolite of fasudil
compound,measurement,value
O=S(=O)(c1cccc2c(O)nccc12)N1CCCNCC1 [M3],half-life,about 8 hours
